SMILES strings stand for the structures.

Tested on in the first test: not listed separately
Nature of the test: Displacement of [3H]-Aldosterone from recombinant rhesus monkey MR expressed in baculovirus infected insect cells after 3 hrs by filter-based Topcount method. Also on record: species or system Macaca mulatta.
As to `CCCSC1=C(C#N)C(c2ccccc2Cl)C(C(=O)Nc2ccccc2OC)=C(C)N1` (stereo not drawn), the Ki (in general, a measure of affinity in units of concentration, obtained from inhibition or displacement) was determined as 14.9 nM. Turning to `CCSC1=C(C#N)C(c2ccccc2Cl)C(C(=O)Nc2ccccc2OC)=C(C)N1` (stereo not drawn), the Ki is 53 nM. As for `CC(c1ccccc1)n1ccnc1C(c1ccccc1)c1ccccc1` (stereo not drawn), the inhibition constant Ki worked out at 285 nM.

As to `Cc1cccc(Cn2ccnc2C(c2ccccc2)c2ccccc2)c1`, the Ki worked out at 134 nM.

`COc1cc(C2C(C(=O)Oc3ccccc3)=C(C)NC(C)=C2C(=O)Oc2ccccc2)ccc1O`: the Ki amounted to 21.5 nM. Regarding `COC(=O)C1=C(C)NC(C)=C(C(=O)OC)C1c1cccc2ccccc12`, the Ki is 61 nM.

Another test has as its target T1, Mineralocorticoid receptor (Homo sapiens, UniProt P08235).
T1 sequence (P08235 whole entry): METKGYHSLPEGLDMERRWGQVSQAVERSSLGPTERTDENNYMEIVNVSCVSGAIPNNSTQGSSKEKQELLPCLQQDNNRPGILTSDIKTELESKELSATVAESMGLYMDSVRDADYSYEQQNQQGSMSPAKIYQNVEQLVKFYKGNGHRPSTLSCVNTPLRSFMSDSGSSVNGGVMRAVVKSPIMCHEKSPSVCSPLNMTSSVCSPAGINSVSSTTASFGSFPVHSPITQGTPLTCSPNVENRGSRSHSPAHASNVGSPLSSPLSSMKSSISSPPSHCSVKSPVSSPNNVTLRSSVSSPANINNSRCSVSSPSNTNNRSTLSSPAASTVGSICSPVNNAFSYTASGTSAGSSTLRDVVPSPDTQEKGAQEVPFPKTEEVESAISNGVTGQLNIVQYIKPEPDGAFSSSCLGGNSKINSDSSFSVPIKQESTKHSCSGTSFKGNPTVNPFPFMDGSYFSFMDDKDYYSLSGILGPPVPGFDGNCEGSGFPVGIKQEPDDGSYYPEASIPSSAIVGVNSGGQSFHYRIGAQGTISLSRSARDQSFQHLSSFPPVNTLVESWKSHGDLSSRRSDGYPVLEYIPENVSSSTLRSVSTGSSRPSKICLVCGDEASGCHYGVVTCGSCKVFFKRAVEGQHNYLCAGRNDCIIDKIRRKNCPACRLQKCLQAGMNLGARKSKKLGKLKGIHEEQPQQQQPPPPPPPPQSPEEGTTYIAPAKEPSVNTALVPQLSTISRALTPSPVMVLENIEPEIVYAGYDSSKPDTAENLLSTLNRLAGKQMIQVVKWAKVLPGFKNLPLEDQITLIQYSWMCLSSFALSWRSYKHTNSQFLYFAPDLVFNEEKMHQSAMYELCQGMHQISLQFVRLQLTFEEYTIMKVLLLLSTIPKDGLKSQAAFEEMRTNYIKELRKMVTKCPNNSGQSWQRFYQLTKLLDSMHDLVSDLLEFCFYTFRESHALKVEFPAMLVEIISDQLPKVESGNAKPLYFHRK
Description: Antagonist activity at Gal4-fused human MR LBD (671 to 984 residues) expressed in African Green Monkey CV-1 cells assessed as inhibition of aldosterone-induced transactivation activity after 20 hrs by luciferase reporter gene assay. Type of test: cell-based. For orientation: In a reporter assay the amount or activity of a reporter protein is the signal.
As for `Cc1c(C(=O)Nc2ccc(S(C)(=O)=O)cc2)cc(C[C@H](C)O)n1-c1ccc(Cl)cc1C(F)(F)F` (single isomer, unassigned; atropisomer 2), the IC50 (in general, the concentration at which inhibition is half-maximal) was over 1000 nM. Regarding `Cc1c(C(=O)Nc2ccc(S(C)(=O)=O)cc2)cc([C@H](C)[C@H](C)O)n1-c1ccc(F)cc1C(F)(F)F` (mixture of isomers), the IC50 was 6.2 nM. As for `Cc1cc(C(=O)Nc2ccc(S(N)(=O)=O)cc2)c(C)n1-c1ccccc1C(F)(F)F`, the IC50 was under 500 nM. Take `Cc1cc(C(=O)Nc2cccc3ccccc23)c(C)n1-c1ccccc1C(F)(F)F`: the IC50 is under 500 nM. Consider `Cc1c(C(=O)Nc2ccc(S(C)(=O)=O)cc2)cn([C@H](C)[C@H](C)O)c1-c1ccc(F)cc1C(F)(F)F` (single isomer, unassigned; atropisomer 2), for which the IC50 is over 1000 nM.

As to `Cc1c(C(=O)Nc2ccc(S(C)(=O)=O)cc2)cc(C[C@H](C)O)n1-c1ccc(Cl)cc1-c1ccc(F)cc1` (single isomer, unassigned; atropisomer 2), the IC50 was over 1000 nM. Still for that read-out and setting: with `Cc1c(C(=O)Nc2ccc(S(C)(=O)=O)cc2)cc(CCO)n1-c1ccc(Cl)cc1C(F)(F)F` (single isomer, unassigned; atropisomer 2) the figure was over 1000 nM; with `Cc1[nH]c(C(=O)Nc2ccc(S(C)(=O)=O)cc2)c(C)c1-c1ccccc1C(F)(F)F`, under 500 nM; with `Cc1c(C(=O)Nc2ccc(S(C)(=O)=O)cc2)cn([C@H](C)[C@H](C)O)c1-c1ccc(F)cc1C(F)(F)F`, 3.8 nM. In the case of `Cc1cc(C(=O)NCCc2ccccc2)c(C)n1-c1ccccc1C(F)(F)F`, the IC50 was under 500 nM. Same read-out and setting: under `Cc1ccc(NC(=O)c2cc(C)n(-c3ccccc3C(F)(F)F)c2C)cc1Cl` stands under 500 nM; under `Cc1c(C(=O)Nc2ccc(S(C)(=O)=O)cc2)cc(CCF)n1-c1ccc(F)cc1OC(F)F` (single isomer, unassigned; atropisomer 2), over 1000 nM.

Another test has as its target T1, Mineralocorticoid receptor. Nature of the test: Antagonist activity at Gal4-fused human MR LBD (734 to 985 residues) expressed in CHO-K1 cells after 5 to 6 hrs by luciferase reporter gene assay. The format is cell-based.
`CC(=O)C1=C(C)NC(C)=C(C(=O)OC2CCC2)[C@@H]1c1cccc2c(=O)cc(C)oc12` displayed an IC50 of 7 nM. `CCc1cnc2cccc(C3C(C#N)=C(C)NC(C)=C3C(=O)OC(C)C)c2c1` (stereo not drawn) showed an IC50 of 310 nM. On the same count and under the same terms, with `CCOc1nccc2c1C(c1ccc(C#N)cc1OC)C(C#N)=C(C)N2` (stereo not drawn) the figure was 100 nM. `CC1=C(C#N)C(c2cccc3c2-c2ccccc2C3=O)C(C(=O)OC(C)C)=C(C)N1` (stereo not drawn): the IC50 is 23 nM. In the case of `CC1=C(C#N)C(c2cccc3c(=O)cc(C)oc23)C(C(=O)OC(C)C)=C(C)N1` (stereo not drawn), the IC50 was 160 nM. Turning to `COC(=O)c1c(C)nc(C)c(C(=O)CC2CCC2)c1-c1cccc2c(=O)cc(C)oc12`, the half-maximal inhibitory concentration (IC50) is 18 nM.

For a further test, the target named is T1, Mineralocorticoid receptor. Description: Displacement of [3H]-Aldosterone from MR overexpressed in human 293 cells measured after overnight incubation by TopCount method. The format is cell-based. For orientation: Displacement assays read how much labelled ligand stays bound in the presence of the test substance.
As to `CCC(CC)(c1ccc2ncsc2c1)c1c[nH]c2c(NS(C)(=O)=O)cccc12`, the Ki was at most 500 nM.

In turn, `CCC(CC)(c1cc2ccccc2o1)c1c[nH]c2c(NS(C)(=O)=O)cccc12` displayed a Ki of at most 500 nM. The same measure, in the same setting: under `CCC(CC)(c1ccc(Cl)cc1)c1c[nH]c2c(NS(C)(=O)=O)cccc12` stands at most 500 nM; under `CCC(CC)(c1ccccc1)c1c[nH]c2c(NS(C)(=O)=O)cccc12`, at most 500 nM; under `CCC(CC)(c1ccc2c(c1)OCCO2)c1c[nH]c2c(NS(C)(=O)=O)cccc12`, at most 500 nM. Same read-out and setting: under `CCC(CC)(c1ccc(O)cc1)c1c[nH]c2c(NS(C)(=O)=O)cccc12` stands at most 500 nM.

The next test deals with T2, Mineralocorticoid receptor (Homo sapiens) (UniProt P08235).
T2 sequence (whole entry): T1 sequence (P08235 whole entry)
Description: Antagonist activity at full-length human MR expressed in CHO-K1 cells assessed as inhibition of aldosterone-induced response measured after overnight incubation by luminesence analysis. Type of test: cell-based.
For `CCC(O)C(CC(F)F)(c1ccc(C(F)(F)F)cc1)n1ncc2c(NS(C)(=O)=O)cccc21` (stereo not drawn), the Inhibitory potency is 15 nM. In the case of `CCC(O)C(CC)(c1ccc(Br)cc1)n1ncc2c(NS(C)(=O)=O)cccc21` (stereo not drawn), the Inhibitory potency was found to be 3 nM. Take `CCC(c1ccc(C(F)(F)F)cc1)(C(O)C(F)F)n1ncc2c(NS(=O)(=O)CC)cccc21` (stereo not drawn): the Inhibitory potency was found to be 4 nM.

Regarding `CCC(c1ccc(C(F)(F)F)cc1)(C(O)C(F)F)n1ncc2c(NS(=O)(=O)CC)cc(F)cc21` (stereo not drawn), the Inhibitory potency came out at 11 nM.

Turning to `CCC(O)C(CC)(c1ccc(C(F)(F)F)cc1)n1ncc2c(NS(C)(=O)=O)cc(F)cc21` (stereo not drawn), the Inhibitory potency was found to be 9 nM.

For a further test, the target named is T1, Mineralocorticoid receptor. Description: Displacement of [3H]-Aldosterone from MR overexpressed in human 293 cells measured after 2 hrs by Microbeta scintillation counting method. The format is cell-based.
`NC(=O)/N=c1/[nH]c2cc(/C=C3\c4ccccc4COc4cc(F)ccc43)ccc2n1[C@H]1C[C@@H]2COCCN2C1`: the Ki was at most 10 nM. Still for that read-out and setting: with `N#C/N=c1\[nH]c2cc(/C=C3/c4ccc(F)cc4OCc4c(F)cccc43)ccc2n1[C@@H]1C[C@H]2COCCN2C1` the figure was at most 10 nM. With `C[C@@H](CN1CCOCC1)n1/c(=N/C#N)[nH]c2cc(/C=C3\c4ccccc4COc4cc(F)ccc43)ccc21`, the Ki is at most 10 nM.

Compound `C[C@@H](CN1CCOCC1)n1/c(=N/C#N)[nH]c2cc(/C=C3/c4ccc(F)cc4OCc4c(F)cccc43)ccc21` showed a Ki of at most 10 nM. Turning to `C[C@H](CN1CCOCC1)n1/c(=N\C#N)[nH]c2cc(/C=C3/c4ccc(F)cc4OCc4c(F)cccc43)ccc21`, the Ki is at most 10 nM. In turn, `N#C/N=c1/[nH]c2cc(/C=C3/c4ccc(F)cc4OCc4c(F)cccc43)ccc2n1[C@H]1C[C@@H]2COCCN2C1` displayed a Ki of 0.23 nM. `C[C@@H](CN1CCOCC1)n1/c(=N/C#N)[nH]c2cc(/C=C3\c4ccc(F)cc4COc4cc(F)ccc43)ccc21` showed a Ki of at most 10 nM. Turning to `C[C@H](CN1CCOCC1)n1/c(=N\C(N)=O)[nH]c2cc(/C=C3\c4ccccc4COc4cc(F)ccc43)ccc21` [LY2623091], the Ki worked out at 0.33 nM. In the case of `N#C/N=c1/[nH]c2cc(/C=C3/c4ccc(F)cc4OCc4c(F)cccc43)ccc2n1[C@H]1C[C@H]2COCCN2C1`, the Ki was at most 10 nM. The same measure, in the same setting: under `CN1C[C@H](O)[C@@H](n2/c(=N/C#N)[nH]c3cc(/C=C4\c5ccccc5COc5cc(F)ccc54)ccc32)C1` stands at most 10 nM. As to `C[C@H](CN1CCOCC1)n1/c(=N\C#N)[nH]c2cc(/C=C3\c4ccc(F)cc4COc4cc(F)ccc43)ccc21`, the Ki came to 0.79 nM. On to `CN1CCN(n2/c(=N\C#N)[nH]c3cc(/C=C4\c5ccccc5COc5cc(F)ccc54)ccc32)CC1`, for which the Ki came to 0.08 nM. For the compound `N#C/N=c1/[nH]c2cc(/C=C3/c4ccc(F)cc4OCc4c(F)cccc43)ccc2n1[C@@H]1C[C@@H]2COCCN2C1`, the Ki was at most 10 nM.

These data come from ChEMBL document CHEMBL4007392, “Modulating Mineralocorticoid Receptor with Non-steroidal Antagonists. New Opportunities for the Development of Potent and Selective Ligands without Off-Target Side Effects” (J Med Chem, 2017).
